Inconclusive results and toxic doses are left out.
System: P388 leukemia ip, CD2F1 mice, survival T/C
Test: NCI In Vivo Anticancer Drug Screen. Data for tumor model P388 Leukemia (intraperitoneal) in CD2F1 (CDF1) mice
Settings: endpoint: median survival time, higher = longer survival
In short: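 Mice carrying the transplanted tumor received test compound or vehicle. Survival was recorded in each group, and the value is the treated-group measurement divided by that of the vehicle-treated control group.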

[1] = dose: 60.0 mg/kg/injection, schedule: Q01DX005 (ip), vehicle: saline with Tween-80
[2] = dose: 120.0 mg/kg/injection, schedule: Q01DX005 (ip), vehicle: saline with Tween-80
[3] = dose: 240.0 mg/kg/injection, schedule: Q01DX005 (ip), vehicle: saline with Tween-80
[4] = dose: 50.0 mg/kg/injection, schedule: Q01DX005 (ip), vehicle: saline with Tween-80
[5] = dose: 100.0 mg/kg/injection, schedule: Q01DX005 (ip), vehicle: saline with Tween-80
[6] = dose: 200.0 mg/kg/injection, schedule: Q01DX005 (ip), vehicle: saline with Tween-80
[7] = dose: 6.25 mg/kg/injection, schedule: Q01DX009 (ip), vehicle: saline
[8] = dose: 60.0 mg/kg/injection, schedule: Q01DX005 (ip), vehicle: Klucel (hydroxypropylcellulose) (HPC)
[9] = dose: 120.0 mg/kg/injection, schedule: Q01DX005 (ip), vehicle: Klucel (hydroxypropylcellulose) (HPC)
[10] = dose: 240.0 mg/kg/injection, schedule: Q01DX005 (ip), vehicle: Klucel (hydroxypropylcellulose) (HPC)

In the case of `COC(=O)N1c2ccccc2SC1C#N` (stereo not given), the T/C [1] is reported as 96 % of control, the T/C [2] is reported as 112 % of control and the T/C [3] is reported as 106 % of control.
`CC(=O)[C-](Cl)C(C)=O.CC(=O)[C-](Cl)C(C)=O.CC(=O)[C-](Cl)C(C)=O.[Ru+3]` was tested, and the T/C [1] was 111 % of control, the T/C [2] was 109 % of control and the T/C [3] was 98 % of control.
With `CC1=CS(=O)c2ccccc2N1C` (stereo not given) the T/C (dose: 50.0 mg/kg/injection, schedule: Q04DX002 (ip), vehicle: Klucel (hydroxypropylcellulose) (HPC)) was 97 % of control, the T/C (dose: 100.0 mg/kg/injection, schedule: Q04DX002 (ip), vehicle: Klucel (hydroxypropylcellulose) (HPC)) was 100 % of control and the T/C (dose: 100.0 mg/kg/injection, schedule: Q04DX002 (ip), vehicle: suspension in saline) was 109 % of control. For the same molecule, the T/C (dose: 200.0 mg/kg/injection, schedule: Q04DX002 (ip), vehicle: Klucel (hydroxypropylcellulose) (HPC)) was 101 % of control, the T/C (dose: 200.0 mg/kg/injection, schedule: Q04DX002 (ip), vehicle: suspension in saline) was 124 % of control and the T/C (dose: 400.0 mg/kg/injection, schedule: Q04DX002 (ip), vehicle: Klucel (hydroxypropylcellulose) (HPC)) was 108 % of control. The T/C (dose: 400.0 mg/kg/injection, schedule: Q04DX002 (ip), vehicle: suspension in saline) was 117 % of control.
For `CCCCC1=C(O)c2ccccc2C(=NC(CO)(CO)CO)C1=O`, the T/C [4] was 103 % of control, the T/C [5] was 110 % of control and the T/C [6] was 100 % of control.
For `COC(=O)C(CNc1ccc(S(N)(=O)=O)cc1)=[N+]=[N-]`, the T/C [7] was 98 % of control, the T/C (dose: 12.5 mg/kg/injection, schedule: Q01DX009 (ip), vehicle: saline) was 97 % of control and the T/C (dose: 25.0 mg/kg/injection, schedule: Q01DX009 (ip), vehicle: saline) was 91 % of control. The T/C (dose: 100.0 mg/kg/injection, schedule: Q01DX009 (ip), vehicle: saline) was 100 % of control and the T/C (dose: 200.0 mg/kg/injection, schedule: Q01DX009 (ip), vehicle: saline) was 99 % of control.
For `CC1(C)OC2OC3C(CN)OC(c4ccccc4)OC3C2O1` (stereo not given), the T/C [4] was 105 % of control, the T/C [5] was 103 % of control and the T/C [6] was 86 % of control.
For `COc1cc2c(cc1OC)C1CC(=O)C(C3(O)C(=O)Nc4ccccc43)CN1CC2` (stereo not given), the T/C (dose: 100.0 mg/kg/injection, schedule: Q04DX003 (ip), vehicle: Klucel (hydroxypropylcellulose) (HPC)) was 99 % of control, the T/C (dose: 200.0 mg/kg/injection, schedule: Q04DX003 (ip), vehicle: Klucel (hydroxypropylcellulose) (HPC)) was 99 % of control and the T/C (dose: 400.0 mg/kg/injection, schedule: Q04DX003 (ip), vehicle: Klucel (hydroxypropylcellulose) (HPC)) was 112 % of control.
`Cc1cc[n+](C2=C(Nc3cccc(C(F)(F)F)c3)C(=O)c3ccccc3C2=O)cc1` was tested, and the T/C (dose: 3.75 mg/kg/injection, schedule: Q01DX005 (ip), vehicle: saline with Tween-80) was 105 % of control, the T/C (dose: 7.5 mg/kg/injection, schedule: Q01DX005 (ip), vehicle: saline with Tween-80) was 119 % of control and the T/C (dose: 15.0 mg/kg/injection, schedule: Q01DX005 (ip), vehicle: saline with Tween-80) was 105 % of control.
For `Cc1c2ccn3c(=O)c4ccccc4cc3c2c(C)c2c1[nH]c1ccccc12`, the T/C (dose: 0.78 mg/kg/injection, schedule: Q04DX003 (ip), vehicle: distilled water + Tween-80) was 89 % of control, the T/C (dose: 1.56 mg/kg/injection, schedule: Q04DX003 (ip), vehicle: distilled water + Tween-80) was 87 % of control and the T/C (dose: 200.0 mg/kg/injection, schedule: Q04DX003 (ip), vehicle: distilled water + Tween-80) was 95 % of control.
In the case of `Cc1cc(=O)oc2cc3c(cc12)CCCN3`, the T/C [8] is reported as 101 % of control, the T/C [9] is reported as 104 % of control and the T/C [10] is reported as 96 % of control.
For `O=NNc1ccc(Oc2ccccc2)cn1`, the T/C [7] was 156 % of control.
With `O=C(NCCCCCCNC(=O)C1CCCN1C(=O)OCc1ccccc1)C1CCCN1C(=O)OCc1ccccc1` (stereo not given) the T/C [8] was 100 % of control, the T/C [9] was 98 % of control and the T/C [10] was 100 % of control.
